Experiments:
human KDR kinase = target: T1, human KDR kinase (Homo sapiens, UniProt P35968); assay: KDR Kinase Assay (LanthaScreen TR-FRET enzymatic assay); assay type: biochemical; settings: 1.2 nM KDR, 92 μM ATP
T1 construct: purchased Carna 08-191
Experimental: Compounds were tested in a LanthaScreen™ time-resolved fluorescence energy transfer (TR-FRET) enzymatic assay from Invitrogen. The assay used human KDR kinase (Carna 08-191). Test compounds were prepared and diluted in DMSO in 3-fold serial dilutions to 50× of the final testing concentrations. The compounds were then further diluted to 5× by the kinase reaction buffer (50 mM HEPES pH 7.5, 0.0015% Brij-35). The enzymatic reaction for compound testing was performed in a white 384-well polypropylene plate (Corning 3573) with a total reaction volume of 25 μl containing 1.2 nM KDR, 3 μM peptide substrate FAM-P22 (GL Biochem 112393), and 92 μM ATP (Sigma A7699-1G). The assay started with loading RET diluted in kinase reaction buffer to wells, followed by addition of equal volume of 5× compounds for 15-min incubation at the room temperature for pre-treatment. The enzymatic reaction was initiated by addition of mixture of the substrate and ATP prepared in kinase reaction buffer. After incubation at 28° C. for one hour, 25 μl of stopper buffer (a mixture of 100 mM HEPES pH 7.5 buffer, 0.015% Brij-35, 50 mM EDTA and 0.2% of coating reagent 3 (Cliper Lifesciences)) and produce TR-FRET signals. After 30 minutes of incubation at room temperature, the plate was read in a Caliper with the following settings: Excitation 340 nm (30)/Emission1 495 nm (10)/Emission2 520 nm (25). The TR-FRET values were dimensionless numbers that were calculated as the ratio of the acceptor ([…]) signal to the donor (Terbium) signal. Percent of control was calculated as the percentage of compound-treated vs 1% DMSO vehicle-treated. The dose-response curves were generated and the IC50s were calculated by nonlinear sigmoid curve fitting using XLFit.

TT cells = assay: TT Cell Proliferation Assay (WST-8, 8 days); assay type: cell-based; settings: Homo sapiens, TT, 192 h, growth inhibition in TT cells, read-out: TT Cellular Activity
Experimental: Compounds disclosed herein were tested for the inhibition of RET by a cancer cell proliferation assay commonly known as MTT assay. In this assay, a complete media was prepared by adding 10% fetal bovine serum to RPMI-1640 medium (Life technology). TT cells were added to each of 88 wells of a 96 well plate at a seeding density of 6,000 cells/well/90 μL. The cells were allowed to attach to the plate by incubating at 37° C. for 24 hours. The compound was dissolved in DMSO (SIGMA). A solution of test compound was prepared in complete media by serial dilution to obtain the following concentrations: 50 μM, 15 μM, 5 μM, 1.5 μM, 0.5 μM, 0.15 μM, 0.05 μM, 0.015 μM and 0.005 μM. The test compound solution (10 μL) was added to each of 80 cell-containing wells. The final concentrations of the compound were following: 5 μM, 1.5 μM, 0.5 μM, 0.15 μM, 0.05 μM, 0.015 μM, 0.005 μM, 0.0015 μM and 0.0005 μM. The final concentration of DMSO is 0.5%. To the 8 remaining cell-containing wells, only complete media (containing 0.5% DMSO) was added to form a control group in order to measure maximal proliferation. To the remaining 8 empty wells, complete media was added to for a vehicle control group in order to measure background. The plates were incubated at 37° C. for 8 days. 10 μL WST-8 solution (DOJINDO, Cell Counting KIT-8) was added to each well. The plates were further incubated at 37° C. for 5 hours, and then read for the absorbance using a microplate reader at 450 nm. The IC50 was calculated using GraphPad Prism.

human RET kinase = target: T2, human RET kinase (Homo sapiens, UniProt P07949); assay: RET Kinase Assay (LanthaScreen TR-FRET enzymatic assay); assay type: biochemical; settings: 7 nM RET, 23 μM ATP
T2 construct: purchased Carna 08-159
Experimental: Compounds were tested in a LanthaScreen™ time-resolved fluorescence energy transfer (TR-FRET) enzymatic assay from Invitrogen. The assay used human RET kinase (Carna 08-159). Test compounds were prepared and diluted in DMSO in 3-fold serial dilutions to 50× of the final testing concentrations. The compounds were then further diluted to 5× by the kinase reaction buffer (50 mM HEPES pH 7.5, 0.0015% Brij-35). The enzymatic reaction for compound testing was performed in a white 384-well polypropylene plate (Corning 3573) with a total reaction volume of 25 μl containing 7 nM RET, 3 μM peptide substrate FAM-P2 (GL Biochem 112394), and 23 μM ATP (Sigma A7699-1G). The assay started with loading RET diluted in kinase reaction buffer to wells, followed by addition of equal volume of 5× compounds for 15-min incubation at the room temperature for pre-treatment. The enzymatic reaction was initiated by addition of mixture of the substrate and ATP prepared in kinase reaction buffer. After incubation at 28° C. for one hour, 25 μl of stopper buffer (a mixture of 100 mM HEPES pH 7.5 buffer, 0.015% Brij-35, 50 mM EDTA and 0.2% of coating reagent 3 (Cliper Lifesciences)) and produce TR-FRET signals. After 30 minutes of incubation at room temperature, the plate was read in a Caliper with the following settings: Excitation 340 nm (30)/Emission1 495 nm (10)/Emission2 520 nm (25). The TR-FRET values were dimensionless numbers that were calculated as the ratio of the acceptor ([…]) signal to the donor (Terbium) signal. Percent of control was calculated as the percentage of compound-treated vs 1% DMSO vehicle-treated. The dose-response curves were generated and the IC50s were calculated by nonlinear sigmoid curve fitting using XLFit.

T1 sequence (P35968 20-1356): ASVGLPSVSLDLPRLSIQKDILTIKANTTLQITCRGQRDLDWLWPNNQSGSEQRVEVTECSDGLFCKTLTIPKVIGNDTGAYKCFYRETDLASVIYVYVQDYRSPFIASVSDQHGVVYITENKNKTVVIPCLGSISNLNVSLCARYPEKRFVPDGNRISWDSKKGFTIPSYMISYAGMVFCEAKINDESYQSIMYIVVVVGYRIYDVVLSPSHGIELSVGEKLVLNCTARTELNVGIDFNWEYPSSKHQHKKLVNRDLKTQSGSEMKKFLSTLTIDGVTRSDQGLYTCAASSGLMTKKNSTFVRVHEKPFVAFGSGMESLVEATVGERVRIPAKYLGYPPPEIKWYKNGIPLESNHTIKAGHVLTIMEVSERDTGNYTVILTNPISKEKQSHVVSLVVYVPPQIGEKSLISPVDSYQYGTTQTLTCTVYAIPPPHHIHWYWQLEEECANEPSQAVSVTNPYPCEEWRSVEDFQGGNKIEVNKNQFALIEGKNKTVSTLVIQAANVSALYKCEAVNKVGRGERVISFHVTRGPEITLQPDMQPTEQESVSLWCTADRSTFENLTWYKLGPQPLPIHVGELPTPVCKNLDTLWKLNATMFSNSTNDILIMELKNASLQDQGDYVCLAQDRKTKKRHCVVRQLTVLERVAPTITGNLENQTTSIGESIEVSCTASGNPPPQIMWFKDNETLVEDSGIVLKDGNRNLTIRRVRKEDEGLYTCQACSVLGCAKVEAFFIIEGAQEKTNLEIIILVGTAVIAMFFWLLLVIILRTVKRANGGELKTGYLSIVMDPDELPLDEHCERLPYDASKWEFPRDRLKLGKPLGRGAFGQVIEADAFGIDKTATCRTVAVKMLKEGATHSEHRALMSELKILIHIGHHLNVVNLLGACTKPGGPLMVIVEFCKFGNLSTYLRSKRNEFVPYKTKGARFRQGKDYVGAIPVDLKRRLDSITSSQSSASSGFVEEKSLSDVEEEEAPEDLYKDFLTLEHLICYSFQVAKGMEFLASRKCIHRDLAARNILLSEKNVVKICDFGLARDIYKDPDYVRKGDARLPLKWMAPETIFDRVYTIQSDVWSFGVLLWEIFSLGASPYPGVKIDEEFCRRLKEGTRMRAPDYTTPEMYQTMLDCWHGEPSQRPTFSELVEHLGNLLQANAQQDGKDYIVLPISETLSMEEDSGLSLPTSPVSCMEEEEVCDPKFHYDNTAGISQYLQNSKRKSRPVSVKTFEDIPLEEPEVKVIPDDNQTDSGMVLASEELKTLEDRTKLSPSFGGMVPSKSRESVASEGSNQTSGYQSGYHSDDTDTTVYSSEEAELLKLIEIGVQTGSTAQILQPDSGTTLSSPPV
T2 sequence (P07949 29-1114): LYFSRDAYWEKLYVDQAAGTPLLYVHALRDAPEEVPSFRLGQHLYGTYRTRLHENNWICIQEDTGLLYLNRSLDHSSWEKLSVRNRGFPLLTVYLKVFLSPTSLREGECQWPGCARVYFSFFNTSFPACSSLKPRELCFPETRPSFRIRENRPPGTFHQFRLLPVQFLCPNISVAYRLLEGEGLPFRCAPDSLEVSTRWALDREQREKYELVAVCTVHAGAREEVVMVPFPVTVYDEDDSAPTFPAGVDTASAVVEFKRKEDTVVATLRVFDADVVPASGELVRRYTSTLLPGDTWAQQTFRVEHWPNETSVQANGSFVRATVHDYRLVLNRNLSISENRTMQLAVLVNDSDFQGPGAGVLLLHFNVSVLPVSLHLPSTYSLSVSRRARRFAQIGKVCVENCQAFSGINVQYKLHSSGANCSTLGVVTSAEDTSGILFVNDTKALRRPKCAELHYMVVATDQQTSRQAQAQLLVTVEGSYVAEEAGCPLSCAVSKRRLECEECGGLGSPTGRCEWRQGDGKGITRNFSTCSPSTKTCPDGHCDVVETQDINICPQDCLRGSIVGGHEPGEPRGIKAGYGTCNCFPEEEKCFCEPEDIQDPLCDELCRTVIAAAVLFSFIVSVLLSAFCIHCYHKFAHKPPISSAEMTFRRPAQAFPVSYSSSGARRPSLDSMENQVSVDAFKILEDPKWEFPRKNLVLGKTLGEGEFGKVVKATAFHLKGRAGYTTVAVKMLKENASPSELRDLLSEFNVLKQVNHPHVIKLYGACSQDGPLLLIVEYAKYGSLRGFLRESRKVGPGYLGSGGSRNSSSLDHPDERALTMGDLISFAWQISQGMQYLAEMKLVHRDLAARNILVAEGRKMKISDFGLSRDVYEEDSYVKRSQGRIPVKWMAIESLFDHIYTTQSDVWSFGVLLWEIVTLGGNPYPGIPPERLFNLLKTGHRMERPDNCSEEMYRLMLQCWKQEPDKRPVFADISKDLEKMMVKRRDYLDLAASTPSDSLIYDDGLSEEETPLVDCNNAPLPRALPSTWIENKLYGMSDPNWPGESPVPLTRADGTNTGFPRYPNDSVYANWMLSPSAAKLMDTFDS

Structure (SMILES) | IC50 (human KDR kinase) | IC50 (TT cells) | IC50 (human RET kinase)
CC(C)C(O)C(=O)N1C[C@@H]2CN(c3ccc(-c4cc(-c5cnn(C)c5)cn5ncc(C#N)c45)cn3)C[C@@H]2C1 (stereo partly drawn) [Example 2] | 10 to 50 nM | 10 to 50 nM | ≤ 10 nM
CC(C)C(O)C(=O)NC12CC3CC(C1)N(c1ccc(-c4cc(OCC(C)(C)O)cn5ncc(C#N)c45)cn1)C(C3)C2 [Example 99, N-((1R,3 S,5s,7s)-2-(5-(3-cyano-6-(2-hydroxy-2-methylpropoxy)pyrazolo[1,5-a]pyridin-4-yl)pyridin-2-yl)-2-azaadamantan-5-yl)-2-hydroxy-3-methylbutanamide] | 10 to 50 nM | 10 to 50 nM | ≤ 10 nM
Cn1ccc(-c2cc(-c3cnc(N4C[C@@H]5C[C@@](C)(NC(=O)c6ncccc6F)C[C@@H]5C4)cn3)c3c(C#N)cnn3c2)n1 [Example 140, N-((3aR,5s,6aS)-2-(5-(3-cyano-6-(1-methyl-1H-pyrazol-3-yl)pyrazolo[1,5-a]pyridin-4-yl)pyrazin-2-yl)-5-methyloctahydrocyclopenta[c]pyrrol-5-yl)-3-fluoropicolinamide] | 10 to 50 nM | 10 to 50 nM | ≤ 10 nM
Cn1ccc(-c2cc(-c3ccc(N4C[C@@H]5[C@H](C4)[C@H]5NC(=O)c4ncccc4Cl)nc3)c3c(C#N)cnn3c2)n1 [Example 29, 3-chloro-N-((1R,5S,6s)-3-(5-(3-cyano-6-(1-methyl-1H-pyrazol-3-yl)pyrazolo[1,5-a]pyridin-4-yl)pyridin-2-yl)-3-azabicyclo[3.1.0]hexan-6-yl)picolinamide] | 10 to 50 nM | 50 to 100 nM | ≤ 10 nM
CC(C)(O)COc1cc(-c2ccc(N3C[C@@H]4CN(S(=O)(=O)c5c(F)cccc5Cl)C[C@@H]4C3)nc2)c2c(C#N)cnn2c1 [Example 92, 4-(6-((3aR,6aS)-5-((2-chloro-6-fluorophenyl)sulfonyl)hexahydropyrrolo[3,4-c]pyrrol-2(1H)-yl)pyridin-3-yl)-6-(2-hydroxy-2-methylpropoxy)pyrazolo[1,5-a]pyridine-3-carbonitrile] | 10 to 50 nM | 10 to 50 nM | ≤ 10 nM
Cc1ccc(Cl)c(C(=O)N[C@H]2[C@@H]3CN(c4ccc(-c5cc(-c6cnn(C)c6)cn6ncc(C#N)c56)cn4)C[C@@H]32)n1 [Example 27, 3-chloro-N-((1R,5S,6s)-3-(5-(3-cyano-6-(1-methyl-1H-pyrazol-4-yl)pyrazolo[1,5-a]pyridin-4-yl)pyridin-2-yl)-3-azabicyclo[3.1.0]hexan-6-yl)-6-methylpicolinamide] | 10 to 50 nM | 10 to 50 nM | ≤ 10 nM
Cn1cc(-c2cc(-c3ccc(N4C[C@@H]5[C@@H](CNS(=O)(=O)c6c(F)cccc6Cl)[C@@H]5C4)nc3)c3c(C#N)cnn3c2)cn1 [Example 74, 2-chloro-N-(((1R,5S,6r)-3-(5-(3-cyano-6-(1-methyl-H-pyrazol-4-yl)pyrazolo[1,5-a]pyridin-4-yl)pyridin-2-yl)-3-azabicyclo[3.1.0]hexan-6-yl)methyl)-6-fluorobenzenesulfonamide] | 10 to 50 nM | 10 to 50 nM | ≤ 10 nM
Cn1cc(-c2cc(-c3ccc(N4C[C@@H]5[C@H](C4)[C@H]5NC(=O)c4c(F)cccc4Cl)nc3)c3c(C#N)cnn3c2)cn1 [Example 24, 2-chloro-N-((1R,5S,6s)-3-(5-(3-cyano-6-(1-methyl-1H-pyrazol-4-yl)pyrazolo[1,5-a]pyridin-4-yl)pyridin-2-yl)-3-azabicyclo[3.1.0]hexan-6-yl)-6-fluorobenzamide] | ≤ 10 nM | 10 to 50 nM | ≤ 10 nM
CCOc1cc(-c2ccc(N3C[C@@H]4C[C@@](C)(NC(=O)c5ncccc5C(F)(F)F)C[C@@H]4C3)nc2)c2c(C#N)cnn2c1 [Example 65, N-((3aR,5s,6aS)-2-(5-(3-cyano-6-ethoxypyrazolo[1,5-a]pyridin-4-yl)pyridin-2-yl)-5-methyloctahydrocyclopenta[c]pyrrol-5-yl)-3-(trifluoromethyl)picolinamide] | 50 to 100 nM | 10 to 50 nM | ≤ 10 nM
CCOc1cc(-c2ccc(N3C[C@@H]4C[C@@](C)(NC(=O)c5ncc(F)cc5Cl)C[C@@H]4C3)nc2)c2c(C#N)cnn2c1 [Example 64, 3-chloro-N-((3aR,5s,6aS)-2-(5-(3-cyano-6-ethoxypyrazolo[1,5-a]pyridin-4-yl)pyridin-2-yl)-5-methyloctahydrocyclopenta[c]pyrrol-5-yl)-5-fluoropicolinamide] | 10 to 50 nM | 50 to 100 nM | ≤ 10 nM
Cn1cc(-c2cc(-c3cnc(N4C[C@@H]5C[C@@](C)(NC(=O)c6c(F)cccc6Cl)C[C@@H]5C4)cn3)c3c(C#N)cnn3c2)cn1 [Example 141, 2-chloro-N-((3aR,5s,6aS)-2-(5-(3-cyano-6-(1-methyl-1H-pyrazol-4-yl)pyrazolo[1,5-a]pyridin-4-yl)pyrazin-2-yl)-5-methyloctahydrocyclopenta[c]pyrrol-5-yl)-6-fluorobenzamide] | ≤ 10 nM | ≤ 10 nM | ≤ 10 nM
Cn1ccc(-c2cc(-c3ccc(N4C[C@@H]5C[C@@](C)(NC(=O)c6ncccc6F)C[C@@H]5C4)nc3)c3c(C#N)cnn3c2)n1 [Example 123, N-((3aR,5s,6aS)-2-(5-(3-cyano-6-(1-methyl-1H-pyrazol-3-yl)pyrazolo[1,5-a]pyridin-4-yl)pyridin-2-yl)-5-methyloctahydrocyclopenta[c]pyrrol-5-yl)-3-fluoropicolinamide] | 10 to 50 nM | ≤ 10 nM | ≤ 10 nM
COc1ccc(NC(=O)N[C@H]2[C@@H]3CN(c4ccc(-c5cc(OCC(C)(C)O)cn6ncc(C#N)c56)cn4)C[C@@H]32)cn1 [Example 183, 1-((1R,5S,6s)-3-(5-(3-cyano-6-(2-hydroxy-2-methylpropoxy)pyrazolo[1,5-a]pyridin-4-yl)pyridin-2-yl)-3-azabicyclo[3.1.0]hexan-6-yl)-3-(6-methoxypyridin-3-yl)urea] | > 100 nM | > 100 nM | 10 to 50 nM
CC(O)COc1cc(-c2ccc(N3C[C@@H]4[C@@H](CNC(=O)c5ncccc5Cl)[C@@H]4C3)nc2)c2c(C#N)cnn2c1 (stereo partly drawn) [Example 124, 3-chloro-N-(((1R,5S,6s)-3-(5-(3-cyano-6-(2-hydroxypropoxy)pyrazolo[1,5-a]pyridin-4-yl)pyridin-2-yl)-3-azabicyclo[3.1.0]hexan-6-yl)methyl)picolinamide] | > 100 nM | 10 to 50 nM | ≤ 10 nM

Source: patent US20220220128A1, “HETEROCYCLIC COMPOUNDS AS KINASE INHIBITORS, COMPOSITIONS COMPRISING THE HETEROCYCLIC COMPOUND, AND METHODS OF USE THEREOF” (JS Innopharm (Shanghai) Ltd, priority 2019, published 2022)
